One assay has as its target T1, Human GSDMD (Homo sapiens, UniProt P57764).
T1 construct: His6-MBP (N, cleaved yes); made in house; host or cells: E. coli BL21 (DE3) for GSDMD; Sf9 for caspase-11
T1 sequence (P57764 1-484): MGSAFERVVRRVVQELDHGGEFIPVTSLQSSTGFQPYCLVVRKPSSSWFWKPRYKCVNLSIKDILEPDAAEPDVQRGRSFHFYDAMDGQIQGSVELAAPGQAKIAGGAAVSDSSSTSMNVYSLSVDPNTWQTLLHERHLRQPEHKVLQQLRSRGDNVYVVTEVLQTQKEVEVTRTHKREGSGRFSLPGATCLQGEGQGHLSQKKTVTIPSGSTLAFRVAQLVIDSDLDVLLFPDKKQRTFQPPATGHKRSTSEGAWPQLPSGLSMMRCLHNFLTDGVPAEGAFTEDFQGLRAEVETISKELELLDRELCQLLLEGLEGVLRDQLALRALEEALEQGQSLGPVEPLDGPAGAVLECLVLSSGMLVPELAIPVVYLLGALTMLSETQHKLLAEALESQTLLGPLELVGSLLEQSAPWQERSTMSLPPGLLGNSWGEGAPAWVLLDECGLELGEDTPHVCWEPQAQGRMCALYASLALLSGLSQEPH
Put plainly: Liposome leakage assay (Tb3+/DPA), GSDMD plus caspase-11. The conditions noted are these: for IC50: WT GSDMD, caspase-11-triggered, read-out: IC50 of liposome leakage. In kind it is biochemical. The procedure: The lipid mixture was suspended in 1 mL Buffer A (20 mM HEPES, 150 mM NaCl, 50 mM sodium citrate, and 15 mM TbCl3) for 3 min. The suspension was pushed through 100 nm Whatman® Nuclepore™ Track-Etched Membrane 30 times to obtain homogeneous liposomes. The filtered suspension was purified by size exclusion column (Superose 6, 10/300 GL) in Buffer B (20 mM HEPES, 150 mM NaCl) to remove TbCl3 outside liposomes. […] The liposomes are diluted to 50 μM with Buffer C (20 mM HEPES, 150 mM NaCl and 50 μM DPA) for use in high-throughput screening.

A further assay relates to ASC specks. Put plainly: ASC speck formation in LPS-primed THP-1 cells plus nigericin. In kind it is cell-based, human. The following applies: for ASC speck formation: 1 hr before nigericin. How it is done: Immunostaining and confocal microscopy: cells grown on coverslips were fixed for 15 min with 4% paraformaldehyde in PBS, permeabilized for 5 min in 0.1% Triton X-100 in PBS and blocked using 5% BSA for 1 hr. Then, cells were stained with the indicated primary antibodies followed by incubation with fluorescent-conjugated secondary antibodies (Jackson ImmunoResearch). Nuclei were counterstained with DAPI (4,6-diamidino-2-phenylindole) (Sigma-Aldrich). Slides were mounted using Aqua-Poly/Mount (Dako). Images were captured using a laser scanning confocal microscope (Olympus Fluoview FV1000 Confocal System) with a 63× water immersion objective and Olympus Fluoview software (Olympus). All confocal images are representative of three independent experiments.
Nigericin activates the assembly of the NLRP3 canonical inflammasome using an adaptor called apoptosis-associated speck-like protein containing a caspase recruitment domain (ASC), which can be visualized in immunofluorescent microscopy as specks. When LPS-primed THP-1 cells were treated with nigericin in the absence of inhibitors, ASC specks were detected in 30% of cells (FIG. 36). As expected, speck formation was not inhibited by z-VAD-fmk, since caspase activation occurs downstream of inflammasome assembly.
(§1) Cell death was determined by CytoTox96 assay. […] Cell death was determined by CytoTox96 assay. […] Shown are immunoblots of whole cell lysates harvested 0.5 hr later. […] Representative images of ASC specks (arrowheads) and mean±s.d. percent of cells with ASC specks analyzed 20 min later (FIG. 47). Whole cell lysates (WCL) and culture supernatants (Sup) were harvested 30 min after adding nigericin and immunoblotted with the indicated antibodies (FIG. 50). Caspase-1 activity was assayed 30 min after adding nigericin using a cell-permeable fluorescence dye FAM-YVAD-FMK (FIG. 52). […] Representative images of ASC specks (arrowheads) and mean±s.d. percent of cells with ASC specks analyzed 20 min later (FIGS. 48 and 49). Whole cell lysates (WCL) and culture supernatants (Sup), harvested 30 min after adding nigericin, were analyzed by immunoblot (FIG. 51). […] The Figures show representative confocal microscopy images and quantification of proportion of cells with GSDMD membrane staining and pyroptotic bubbles. Arrows indicate GSDMD staining of pyroptotic bubbles. […] FIGS. 57 and 58, dose response curve of the effect of Bay 11-7082 on caspase-1 (FIG. 57) and caspase-11 (FIG. 58) activity against a fluorescent peptide substrate. […] (FIG. 60). FIGS. 61 and 62 show dose response curve of the effect of Bay 11-7082 on liposome leakage induced by 0.3 μM human GSDMD-3C (FIG. 61) or mouse GSDMA3-3C (FIG. 62) plus 0.15 μM 3C protease. […] 2-fold dilutions of Bay 11-7082 from 5-40 μM were used. Graphs show the mean±s.d; data are representative of three independent experiments. *P<0.05, **P<0.01.

The next assay deals with caspase-1. The experiment in a line: Caspase-1 activity assay in cells (FAM-YVAD-FMK). In kind it is cell-based, human. The conditions noted are these: 30 μM, 30 min after nigericin. The procedure: Caspase-1 activity assay in cells: to measure caspase-1 activation, THP-1 cells were seeded into 96-well plates and differentiated with PMA. After the indicated treatments, cells were incubated with a fluorescent active caspase-1 substrate FAM-YVAD-FMK (Immunochemistry Technologies). Samples were read on a BioTek Synergy 2 plate reader.
as §1

In another assay the target is T2, caspase-11 (Mus musculus, UniProt P70343).
T2 construct: made in house; host or cells: Sf9 (baculovirus)
T2 sequence (P70343 81-373): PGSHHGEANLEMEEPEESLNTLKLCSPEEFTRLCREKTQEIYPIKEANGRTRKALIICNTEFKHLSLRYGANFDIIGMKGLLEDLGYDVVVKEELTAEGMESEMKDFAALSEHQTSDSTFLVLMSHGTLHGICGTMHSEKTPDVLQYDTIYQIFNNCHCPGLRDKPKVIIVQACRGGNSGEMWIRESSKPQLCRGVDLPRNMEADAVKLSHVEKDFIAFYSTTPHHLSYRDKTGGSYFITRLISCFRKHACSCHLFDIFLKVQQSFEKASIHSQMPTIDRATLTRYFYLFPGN
Put plainly: Caspase-11 inhibition assay (Ac-YVAD-AMC). In kind it is biochemical. The procedure: Caspase-1 and caspase-11 inhibition assays: the fluorogenic assay for caspase-1 and caspase-11 activity is based on release of 7-amino-4-methylcoumarin (AMC) from the caspase substrate Ac-YVAD-AMC. Compounds (8 nM-50 μM) were incubated with 0.5 U of caspase-1 or caspase-11 for 30 min in assay buffer (20 mM HEPES, 150 mM NaCl) in 384-well plates (Corning 3820) before addition of Ac-YVAD-AMC (40 μM) to initiate the reactions. Reactions were monitored in a SpectraMax M5 plate reader (Molecular Devices, Sunnyvale, Calif. USA) with excitation/emission wavelengths at 350/460 nm. The fluorescence intensity of each reaction was recorded every 2 min for 2 hrs.
Fluorescence intensity at 460 nm was measured after excitation at 350 nm.

Each structure is given as a SMILES string.

The IC50 is the point on the concentration scale where inhibition reaches its midpoint.

`Cc1ccc(S(=O)(=O)/C=C/C#N)cc1` [Bay 11-7082]: the “times less active than disulfiram at inhibiting liposome leakage” value on Human GSDMD (GSDMD plus caspase-11) came out at 23 fold. For the same molecule, on Human GSDMD, the IC50 turned out to be 6810 ± 100 nM. In addition, the ASC speck formation result in the assay with ASC specks (30 μM) was “inhibited ASC speck formation, but not completely”. The “caspase-1 activity in intact cells” value with caspase-1 is given as “only partially reduced”. The “times less active against caspase-11 than disulfiram” value on caspase-11 is listed as “about 3 fold”.

In the case of `CCN(CC)C(=S)SSC(=S)N(CC)CC` [C-23, Tetraethylthiuram disulfide], the IC50 is ~300 nM on Human GSDMD and 730 ± 70 nM against caspase-11. Moreover, the “incubation time to inhibition of liposome leakage” value on Human GSDMD (time course, preincubation 2-90 min) is ≤ 2 min. Also, on Human GSDMD (with Cu2+), the “effect of copper gluconate (Cu2+) on inhibition of liposome leakage” value is reported as “only weakly increased”. Further, in the assay on ASC specks (1 μM with copper gluconate), the ASC puncta entry is “reduced ASC puncta”. Besides, the “cells with ASC specks” value in the assay with ASC specks (30 μM, 1 hour before nigericin) is recorded as “about 20 % of cells”. Moreover, the ASC speck formation result in the assay on ASC specks (30 μM) was “inhibited ASC speck formation, but not completely”. Further, in the assay with caspase-1, the “caspase-1 activity in intact cells” value was “only partially reduced”. Also, the “effect of Cu(II) on caspase-11 inhibition” value at caspase-11 (with Cu(II)) is on record as “did not strongly change”.
